Assay results published in patent US11684614B2, “Formulations of hydroxypyridonate actinide/lanthanide decorporation agents” (priority 2017, dated 2023).
Where “and” joins values, the source holds several entries; their conditions need not be identical. Identical values can stand only once.

Test: Repeated-treatment efficacy for removing an intravenous dose of 238Pu (excretion, tissue retention, clinical observations), female and male arms
Assay type: in vivo, Swiss-Webster mice
Settings: for % Recovered Dose-Female Animals-Urine per Day-Day 11 Necropsy: animal group H
Method: The objective of this study was to characterize the efficacy of 3,4,3-L1(1,2-HOPO) at enhancing elimination from an internal plutonium burden in female and male Swiss-Webster mice administered a soluble citrate complex of ^238Pu and treated multiple times, starting at 24 hours after the exposure. Efficacy was evaluated by comparing the tissue contents, urinary and fecal excretions of ^238Pu in treated animals versus untreated animals.
The medical countermeasure 3,4,3-L1(1,2-HOPO) was administered parenterally (ip) or orally (po) via consecutive injections or gavages (six daily or twelve twice daily) starting at 24 hours post contamination at the following four selected doses: 30 μmol/kg ip, 150 μmol/kg po, 300 μmol/kg po, and 600 μmol/kg po (equivalent to respective approximate human doses range of […], using the accepted conversion system of mouse doses into human equivalent doses—HED—based on body surface area). Oral doses also included the permeability enhancer selected during formulation development work.
• Challenge isotope: ^238Pu • Challenge dose: 25 nCi (i.e., approximately 0.8 μCi/kg) • Route of contamination: Intravenous (iv) tail-vein • Route of treatment: Intraperitoneal Injection (ip) or Oral (po) • Frequency of treatment: Multiple (once- or twice-daily for 6 days) doses, starting 24 hr postcontamination • Treatment dose calculation: Dose calculations (mg/kg or μmol/kg) for the decorporation agent were based on the individual body weight measured after contamination. • Study Duration: 11 days, in-life
c. […] Test article and control dose formulations were prepared within 1 day of dose administration, by weighing out the appropriate amount of test article, dispersing in vehicle. For ip solutions, the test article was used alone, while for oral suspensions, a mixture of test article and excipient (90:10, w:w) was used. The pH was adjusted to 7.0-7.4 for ip administration and 5.0-5.5 for oral administration with sterile NaOH. Dose formulations were prepared at room temperature and filter-sterilized. • Storage: 2-8° C.; refrigerated; protected from light. • Characterization: The concentration of each test article formulation was verified by high-performance liquid chromatography-mass spectrometry. • Test Article Handling: Test, reference, and control article formulations were handled with the use of eye protection, gloves, and a protective laboratory coat. • Correct Dose Assurance: The test article was weighed with calibrated balances. The administration of each dose formulation was properly documented, and the amount administered to each animal recorded.
e. Experimental Procedures (In-Life Evaluations and Euthanasia) • Contamination: Single administration by intravenous (iv) tail-vein injection (0.2 mL injection volume) under isoflurane anesthesia. Three standard 0.2 mL injections were performed into polyethylene bottles and pre-loaded with aliquots of concentrated nitric acid on each injection day. Six female and six male mice were culled for necropsy 1 hr post-contamination and were used as standards. A11 standards were processed and counted together with the final samples to allow verification of the contamination dose. • Dose Administration: Single administration by intraperitoneal injection (ip) or oral gavage (po) under isoflurane anesthesia. • Mortality/Morbidity: Assessed at least once daily. • Clinical Observations: Recorded once daily (4 hr post-dose on day of treatment), or more often as clinical signs warranted. […]

O=C(NCCCN(CCCCN(CCCNC(=O)c1cccc(=O)n1O)C(=O)c1cccc(=O)n1O)C(=O)c1cccc(=O)n1O)c1cccc(=O)n1O [3,4,3-L1(1,2-HOPO)]
% Recovered Dose-Female Animals-Feces per Day-Day 7 Necropsy (animal group B, day 1, female mice): 9.41%
% Recovered Dose-Female Animals-Feces per Day-Day 7 Necropsy (animal group B, day 2, female mice): 8.35%
% Recovered Dose-Female Animals-Feces per Day-Day 7 Necropsy (animal group B, day 3, female mice): 2.59%
% Recovered Dose-Female Animals-Feces per Day-Day 7 Necropsy (animal group B, day 4, female mice): 1.99%
% Recovered Dose-Female Animals-Feces per Day-Day 7 Necropsy (animal group B, day 5, female mice): 2.39%
% Recovered Dose-Female Animals-Feces per Day-Day 7 Necropsy (animal group B, day 6, female mice): 2.12%
% Recovered Dose-Female Animals-Feces per Day-Day 7 Necropsy (animal group B, day 7, female mice): 1.74%
% Recovered Dose-Female Animals-Feces per Day-Day 7 Necropsy (animal group C, day 1, female mice, listed as 3,4,3-LI(1,2-HOPO)): 11.51% and 5.30% and 8.74% and 7.20%
% Recovered Dose-Female Animals-Feces per Day-Day 7 Necropsy (animal group C, day 2, female mice, listed as 3,4,3-LI(1,2-HOPO)): 13.77% and 8.33% and 12.44% and 14.41%
% Recovered Dose-Female Animals-Feces per Day-Day 7 Necropsy (animal group C, day 3, female mice, listed as 3,4,3-LI(1,2-HOPO)): 4.51% and 3.49% and 4.66% and 4.88%
% Recovered Dose-Female Animals-Feces per Day-Day 7 Necropsy (animal group C, day 4, female mice, listed as 3,4,3-LI(1,2-HOPO)): 3.35% and 3.00% and 3.74% and 4.08%
% Recovered Dose-Female Animals-Feces per Day-Day 7 Necropsy (animal group C, day 5, female mice, listed as 3,4,3-LI(1,2-HOPO)): 2.71% and 2.82% and 2.30% and 2.85%
% Recovered Dose-Female Animals-Feces per Day-Day 7 Necropsy (animal group C, day 6, female mice, listed as 3,4,3-LI(1,2-HOPO)): 2.52% and 2.18% and 2.39% and 3.01%
% Recovered Dose-Female Animals-Feces per Day-Day 7 Necropsy (animal group C, day 7, female mice, listed as 3,4,3-LI(1,2-HOPO)): 2.15% and 1.62% and 1.98% and 2.66%
% Recovered Dose-Female Animals-Feces per Day-Day 7 Necropsy (animal group E, day 1, female mice, listed as 3,4,3-LI(1,2-HOPO)): 6.10% and 10.77% and 13.26% and 10.08%
% Recovered Dose-Female Animals-Feces per Day-Day 7 Necropsy (animal group E, day 2, female mice, listed as 3,4,3-LI(1,2-HOPO)): 8.15% and 10.30% and 9.61% and 15.30%
% Recovered Dose-Female Animals-Feces per Day-Day 7 Necropsy (animal group E, day 3, female mice, listed as 3,4,3-LI(1,2-HOPO)): 2.89% and 5.25% and 5.53% and 2.67%
% Recovered Dose-Female Animals-Feces per Day-Day 7 Necropsy (animal group E, day 4, female mice, listed as 3,4,3-LI(1,2-HOPO)): 2.76% and 3.97% and 4.52% and 2.90%
% Recovered Dose-Female Animals-Feces per Day-Day 7 Necropsy (animal group E, day 5, female mice, listed as 3,4,3-LI(1,2-HOPO)): 1.35% and 1.95% and 2.80% and 2.17%
% Recovered Dose-Female Animals-Feces per Day-Day 7 Necropsy (animal group E, day 6, female mice, listed as 3,4,3-LI(1,2-HOPO)): 1.90% and 1.34% and 2.01% and 2.18%
% Recovered Dose-Female Animals-Feces per Day-Day 7 Necropsy (animal group E, day 7, female mice, listed as 3,4,3-LI(1,2-HOPO)): 2.23% and 1.29% and 1.91% and 2.16%
% Recovered Dose-Female Animals-Feces per Day-Day 7 Necropsy (animal group F, day 1, female mice, listed as 3,4,3-LI(1,2-HOPO)): 9.32% and 9.52% and 7.17% and 5.19%
% Recovered Dose-Female Animals-Feces per Day-Day 7 Necropsy (animal group F, day 2, female mice, listed as 3,4,3-LI(1,2-HOPO)): 8.03% and 12.87% and 9.08% and 6.87%
% Recovered Dose-Female Animals-Feces per Day-Day 7 Necropsy (animal group F, day 3, female mice, listed as 3,4,3-LI(1,2-HOPO)): 2.78% and 4.30% and 4.68% and 2.63%
% Recovered Dose-Female Animals-Feces per Day-Day 7 Necropsy (animal group F, day 4, female mice, listed as 3,4,3-LI(1,2-HOPO)): 2.68% and 3.98% and 3.14% and 2.89%
% Recovered Dose-Female Animals-Feces per Day-Day 7 Necropsy (animal group F, day 5, female mice, listed as 3,4,3-LI(1,2-HOPO)): 2.30% and 3.01% and 3.85% and 3.00%
% Recovered Dose-Female Animals-Feces per Day-Day 7 Necropsy (animal group F, day 6, female mice, listed as 3,4,3-LI(1,2-HOPO)): 2.40% and 2.04% and 2.26% and 1.91%
% Recovered Dose-Female Animals-Feces per Day-Day 7 Necropsy (animal group F, day 7, female mice, listed as 3,4,3-LI(1,2-HOPO)): 1.39% and 1.59% and 2.15% and 2.13%
% Recovered Dose-Female Animals-Urine per Day-Day 11 Necropsy (day 1, female mice, listed as 3,4,3-LI(1,2-HOPO)): 9.33% and 10.42% and 5.66% and 9.35% and 11.13% and 9.41% and 6.93% and 9.39%
% Recovered Dose-Female Animals-Urine per Day-Day 11 Necropsy (day 2, female mice, listed as 3,4,3-LI(1,2-HOPO)): 3.78% and 5.22% and 5.30% and 4.96% and 5.23% and 5.12% and 3.93% and 5.10%
% Recovered Dose-Female Animals-Urine per Day-Day 11 Necropsy (day 3, female mice, listed as 3,4,3-LI(1,2-HOPO)): 4.12% and 4.15% and 6.39% and 5.55% and 5.41% and 4.29% and 3.92% and 3.16%
% Recovered Dose-Female Animals-Urine per Day-Day 11 Necropsy (day 4, female mice, listed as 3,4,3-LI(1,2-HOPO)): 2.95% and 3.74% and 4.22% and 3.34% and 3.22% and 4.38% and 2.99% and 5.19%
% Recovered Dose-Female Animals-Urine per Day-Day 11 Necropsy (day 5, female mice, listed as 3,4,3-LI(1,2-HOPO)): 3.24% and 2.72% and 3.06% and 2.44% and 3.11% and 2.27% and 1.41% and 2.10%
% Recovered Dose-Female Animals-Urine per Day-Day 11 Necropsy (day 6, female mice, listed as 3,4,3-LI(1,2-HOPO)): 1.23% and 2.05% and 2.60% and 1.54% and 1.89% and 1.51% and 0.91% and 1.79%
% Recovered Dose-Female Animals-Urine per Day-Day 11 Necropsy (day 7, female mice, listed as 3,4,3-LI(1,2-HOPO)): 1.33% and 1.66% and 2.35% and 1.27% and 1.38% and 1.35% and 1.24% and 1.89%
